According to article PMC6474387, “Salt-Tolerant Antifungal and Antibacterial Activities of the Corn Defensin ZmD32” (Frontiers in Microbiology, 2019):
Where two headings read alike, the source gives them in different places.

How the values were obtained:
[1] = tested on: E. coli, B. subtilis, S. aureus, and P. aeruginosa; format: cell-based; details: ½ PDB, pH 7; range over four bacteria
[2] = tested on: Leukemia monocyte lymphoma (U937) cells; experiment: MTT cell viability assay, U937; details: 48 h, twofold dilution series from 50 μM down, three independent replicates
F. graminearum PH-1 = format: cell-based, Fusarium graminearum; details: ½ PDB, no added NaCl; 5 × 10^4 spores/mL; OD595, 24 h
B. subtilis = format: cell-based, Bacillus subtilis; details: ½ PDB adjusted to pH 7, no added NaCl, OD595, 24 h
C. auris = format: cell-based, Candida auris; details: OD595, 24 h
S. aureus = details: assays conducted in LB; ref van der Weerden et al., 2008; cited from earlier work
Excerpt: (§1) The antibacterial activity of ZmD32 and NaD1 adds to a growing list of antibacterial defensins ([Sathoff and Samac, 2018]; [Sathoff et al., 2018]; [Velivelli et al., 2018]), a protein family that is best known for antifungal activity ([van der Weerden and Anderson, 2013]; [van der Weerden et al., 2013]; [Parisi et al., 2018]). The lack of reported antibacterial activity for plant defensins likely reflects the medium used for antibacterial assays, Here the ½ PDB pH 7 medium has a NaCl concentration of less than 10 mM. This concentration is considerably lower than growth media often used in anti ...

E. coli [3] = details: assays conducted in LB; ref van der Weerden et al., 2008; cited from earlier work
Excerpt: as §1

C. parapsilosis = format: cell-based, Candida parapsilosis; details: OD595, 24 h
C. albicans ATCC 90028 = format: cell-based, Candida albicans
E. coli [4] = format: cell-based, Escherichia coli; details: strain TOP10, OD595, 24 h
C. krusei = format: cell-based, Candida krusei; details: OD595, 24 h
C. glabrata ATCC 90030 = format: cell-based, Candida glabrata; details: OD595, 24 h
C. albicans biofilms = experiment: Anti-biofilm assay, Presto Blue viability; format: cell-based, Candida albicans; details: 24 h biofilm, 24 h treatment at 37°C in RPMI (132.1 mM sodium), twofold dilution from 300 μg/mL
P. aeruginosa PAO1 = format: cell-based, Pseudomonas aeruginosa; details: ½ PDB adjusted to pH 7, no added NaCl; OD595, 24 h
[5] = tested on: prostate cancer (PC3) cells; experiment: MTT cell viability assay, PC3; details: 48 h, twofold dilution series from 50 μM down, three independent replicates
C. tropicalis ATCC 750 = format: cell-based, Candida tropicalis; details: OD595, 24 h
S. aureus ATCC 9144 = format: cell-based, Staphylococcus aureus; details: ½ PDB adjusted to pH 7, no added NaCl; OD595, 24 h
[6] = Membrane lipid binding assay (protein-lipid overlay); details: detected with α-NaD2 (ZmD32) or α-NaD1 (NaD1) antibody; representative of three independent experiments
[7] = ½ PDB + 100 mM NaCl, read-out: NaCl IC50
[8] = ½ PDB, no added NaCl, read-out: IC50

## NaD1: well-characterized antifungal plant defensin from Nicotiana alata floral tissues or recombinant from Pichia pastoris; used as standard (RECKTESNTFPGICITKPPCRKACISEKFTDGHCSKILRRCLCTKPC; UniProt Q8GTM0 26-72, looked up)
Human red blood cells
  Red blood cells lysed at concentrations up to 50 μM: ≤ 2%
[1]
  IC50: 2000 to 5000 nM
[2]
  Effect on viability of U937 cells: decreased viability of all three cell lines at much lower concentrations than ZmD32
F. graminearum PH-1
  IC50: 1000 ± 500 nM
B. subtilis
  IC50: 2000 ± 200 nM
C. auris; [7]
  IC50: > 10000 nM
C. auris; [8]
  IC50: 2900 ± 500 nM
S. aureus
  Activity against S. aureus: no activity
E. coli [3]
  Activity against E. coli: no activity
C. parapsilosis; [7]
  IC50: 3400 ± 1200 nM
C. parapsilosis; [8]
  IC50: 1200 ± 300 nM
C. albicans ATCC 90028; 5 mM MgCl2 or 2 mM CaCl2, data not shown
  Activity against C. albicans in the presence of divalent metal salts: lost activity
C. albicans ATCC 90028; read-out: IC50
  IC50: 1600 ± 400 nM
C. albicans ATCC 90028; read-out: NaCl IC50
  IC50: > 10000 nM
E. coli [4]; ½ PDB adjusted to pH 7 + 100 mM NaCl, read-out: NaCl IC50
  IC50: > 10000 nM
E. coli [4]; ½ PDB adjusted to pH 7, no added NaCl, read-out: IC50
  IC50: 4600 ± 1600 nM
C. krusei; [7]
  IC50: > 10000 nM
C. krusei; [8]
  IC50: 1200 ± 400 nM
C. glabrata ATCC 90030; [7]
  IC50: > 10000 nM
C. glabrata ATCC 90030; [8]
  IC50: 2800 ± 1000 nM
C. albicans biofilms
  Activity against established C. albicans biofilms: no activity
P. aeruginosa PAO1
  IC50: 4300 ± 300 nM
[5]
  Effect on viability of PC3 cells: decreased viability of all three cell lines at much lower concentrations than ZmD32
C. tropicalis ATCC 750; [7]
  IC50: 1300 ± 500 nM
C. tropicalis ATCC 750; [8]
  IC50: 400 ± 100 nM
S. aureus ATCC 9144
  IC50: 5000 ± 500 nM
[6]
  Lipids bound on membrane lipid strip: bound preferentially to phosphatidylinositol-4,5-bisphosphate [PI(4,5)P2] but also bound to phosphatidic acid (PA) and cardiolipin
